Assay results taken from BindingDB's records for PubMed 11303063 (Creighton University, 2001).
Values joined by “and” are separate entries in the source; they are usually repeats but may differ in a detail not shown here. Equal values may be shown once.

Target: Muscarinic acetylcholine receptor M3 (Rattus norvegicus, UniProt P08483)
Sequence (P08483 whole entry): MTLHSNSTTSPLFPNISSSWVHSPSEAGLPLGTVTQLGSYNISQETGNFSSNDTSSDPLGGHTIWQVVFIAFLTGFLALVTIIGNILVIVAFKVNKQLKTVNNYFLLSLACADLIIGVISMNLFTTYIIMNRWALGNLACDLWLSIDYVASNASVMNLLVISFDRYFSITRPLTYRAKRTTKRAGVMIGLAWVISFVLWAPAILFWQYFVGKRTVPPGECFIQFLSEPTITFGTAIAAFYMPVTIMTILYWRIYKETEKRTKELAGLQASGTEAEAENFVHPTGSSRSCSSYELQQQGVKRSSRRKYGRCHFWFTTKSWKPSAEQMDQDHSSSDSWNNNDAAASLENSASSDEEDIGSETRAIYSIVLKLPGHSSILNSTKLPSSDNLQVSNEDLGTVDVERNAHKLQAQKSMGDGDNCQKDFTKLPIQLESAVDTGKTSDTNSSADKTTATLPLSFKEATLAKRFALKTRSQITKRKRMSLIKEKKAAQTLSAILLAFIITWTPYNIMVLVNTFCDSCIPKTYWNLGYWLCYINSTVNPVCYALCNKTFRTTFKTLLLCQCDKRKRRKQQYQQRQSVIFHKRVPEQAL

COc1ccccc1CNCCCCCCNCCCCCCCCNCCCCCCNCc1ccccc1OC [METHOCTRAMINE]
Ki: 1400 nM and 1700 nM

CN(CCCCCCCCN(C)CCCCCCN(CC(=O)N1c2ccccc2C(=O)Nc2cccnc21)CC(=O)N1c2ccccc2C(=O)Nc2cccnc21)CCCCCCNCC(=O)N1c2ccccc2C(=O)Nc2cccnc21 [NSC_132947]
Ki: 220 nM and 180 nM
